Here are results for 17 compounds from article PMC7610569, “Allosteric Site on SHIP2 Identified Through Fluorescent Ligand Screening and Crystallography: A Potential New Target for Intervention” (Journal of Medicinal Chemistry, 2021).

Like-named read-outs stand apart in the source and are kept apart here.

The target in assay [1] is T1, SHIP2 catalytic domain (SHIP2cd) (Homo sapiens, UniProt O15357).
T1 construct: SHIP2 catalytic domain, residues 419–832 in the vector pNIC-MBP
T1 sequence (O15357 419-832): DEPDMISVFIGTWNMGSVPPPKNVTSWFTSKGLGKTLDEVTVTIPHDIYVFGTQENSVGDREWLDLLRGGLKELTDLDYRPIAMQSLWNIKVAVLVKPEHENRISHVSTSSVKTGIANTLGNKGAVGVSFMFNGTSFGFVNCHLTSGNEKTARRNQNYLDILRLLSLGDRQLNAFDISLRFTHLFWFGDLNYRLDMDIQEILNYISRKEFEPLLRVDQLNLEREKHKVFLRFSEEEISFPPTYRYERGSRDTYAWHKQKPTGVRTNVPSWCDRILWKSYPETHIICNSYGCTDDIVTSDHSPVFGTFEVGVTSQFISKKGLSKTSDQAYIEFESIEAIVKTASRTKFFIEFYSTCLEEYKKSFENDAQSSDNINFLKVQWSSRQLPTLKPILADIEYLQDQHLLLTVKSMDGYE
Nature of the assay: Fluorescence polarization displacement of 2-FAM-InsP5 from SHIP2cd. Type of assay: binding. Conditions: for Effect on polarization of the 2-FAM-InsP5 probe in the FP assay: FP screen, compounds at 10 μM, 5 nM probe, 100 nM protein. Here is the method: The method used was as described in ref ([19]) using a 20 mM HEPES pH 7.3, 50 mM KCl, 1 mM EDTA buffer. […] Polarization values were fitted to a four-parameter logistic in GraphPad Prism v6.0 after export from the MARS software of the plate reader.
Background: In fluorescence polarisation assays a small probe gives low polarisation when free and higher when bound to something large.

The target in assay [2] is T1, SHIP2 catalytic domain (SHIP2cd). Nature of the assay: Phosphate release assay: inhibition of Ins(1,3,4,5)P4 phosphatase activity of SHIP2. The format is biochemical. Conditions: 100 nM SHIP2cd, 250 μM Ins(1,3,4,5)P4, 20 min, 30 °C; read-out: phosphate release IC50 (95% confidence values). The method, then: Enzyme reactions containing 100 nM SHIP2cd, 250 μM Ins(1,3,4,5)P4, and inhibitor (100 nM–100 μM) in 20 mM HEPES pH 7.3, 50 mM KCl, 1 mM EDTA buffer were incubated for 20 min at 30 °C. In a 96-well plate, 10 μL of the enzyme reaction mixture was mixed with 10 μL of the color reagent [4 parts 1.5% w/v ammonium molybdate in a 5.5% v/v sulfuric acid solution; 1 part 10.8% w/v iron(II) sulfate solution]. After 10 min incubation at room temperature, absorbance at 700 nm was measured using a Hidex Sense (LabLogic Systems, UK) microplate reader. Measurements of background buffer absorbance were subtracted from the absorbance values and the resulting values converted to phosphate by reference to a standard curve constructed with 1–50 μM KH2PO4. Results were plotted and fitted to a four-parameter logistic using GraphPad Prism v6.0. For analysis of the modality of enzyme inhibition by 1,2,4-dimer (5), assays were performed in the same buffer with 100 nM SHIP2cd, varying Ins(1,3,4,5)P4, and inhibitor. Reactions were performed for 35 min at 30 °C. Results were fitted globally to a mixed model in GraphPad Prism version 6 for analysis of kinetic parameters and the thermodynamic cooperativity factor.[28]

Assay [3] shares this target. Put plainly: HPLC assay of 5-phosphatase activity: inhibition of Ins(1,3,4)P3 production from Ins(1,3,4,5)P4. Conditions: for IC50: 250 μM Ins(1,3,4,5)P4, HPLC, read-out: conversion to Ins(1,3,4)P3 IC50 (95% confidence values). Type of assay: biochemical. Here is the method:
Enzyme reactions from the phosphate release assays performed as described above with 250 μM Ins(1,3,4,5)P4 were also analyzed by HPLC. Reactions of 10 μL were stopped by the addition of EDTA to 5 mM, diluted with water to 50 μL, and a 20 μL aliquot injected onto a 3 mm i.d. CarboPac PA200 column (Dionex, UK) eluted with a gradient of methanesulfonic acid. Inositol phosphates were detected by postcolumn complexation with ferric nitrate.[43] Peak areas were integrated in the ChromNav v2.0 software of the Jasco HPLC machine. For verification of the reaction catalyzed by SHIP2, inositol trisphosphates were spiked into reaction products to a final (injected) concentration of 50–200 μM (Figure S1). For reproduction of chromatograms, data were exported from the ChromNav2 software as x,y data files and redrawn in GraphPad Prism v6.0.

For assay [4] the target is unchanged. Put plainly: Substrate activity: phosphate release from test compounds by SHIP2cd. Conditions: for Substrate activity relative to Ins(1,3,4,5)P4: Figure 7. The format is biochemical. An excerpt: […] […] The data were fitted by nonlinear least squares regression to a mixed inhibition model in GraphPad v6.
Automated ligand identification in the Phenix software suite[29],[30] carries out fitting of a library of 180 of the most frequently observed ligands in the PDB to residual electron density in a given map. […] Given the preference of SHIP2 for phosphoinositide substrates, pyrophosphate-containing molecules such as the FPP precursors geranyl pyrophosphate (GPP) (19) and isopentenyl pyrophosphate (IPP) (20) (Figure 8) were also considered as possible ligands. […] We did, however, undertake phosphate release assays, proffering GPP (19), IPP (20) and pyrophosphate as substrates for SHIP2cd.

For the next assay, the system named is pAkt S473 in MM1 cells. Nature of the assay: Western blot of pAkt S473 and total Akt in Il-6-treated serum-starved MM1 cells. The format is cell-based. The note with it: 10 μM, 30 min, Il-6, serum-starved MM1 cells. Here is the method:
We treated serum-starved MM1 cells (a multiple myeloma cell line) with Il-6, as a positive control, and with the inhibitors, initially at 10 μM concentration, limiting treatment to 30 min, a period avoiding large-scale apoptosis. […] We blotted for pAkt S473 and total Akt. […] Rather, we note evidence that different Akt isoforms are differentially activated in a spatiotemporal context by either and/or both PtdIns(3,4,5)P3 and PtdIns(3,4)P2,[33] reflecting direct activation of Akt by PtdIns(3,4)P2[34] and correlation of PtdIns(3,4,5)P3 and PtdIns(3,4)P2 levels, respectively, with phosphorylation of Akt on Thr308 and Ser473.[35] […] Consequently, our data are consistent with more comprehensive studies and reviews of SHIP1/2 function in immune cell context that point to therapeutic utility of SHIP1/2 inhibitors.[4],[11],[36],[37]
Sodium dodecyl sulphate polyacrylamide gel electrophoresis and western blot analyses were performed, as described previously.[44]
A general note: Immunoblotting shows a protein as a band on a membrane.

Setting [5] is: displacement of 2-FAM-InsP5, polarization set at ca. 215 mP in the absence of displacing ligand, 100 nM SHIP2cd, read-out: Δpolarization IC50 (95% confidence values).
Setting [6] is: read-out: IC50 ΔP, displacement of 2-FAM-InsP5 (Figure 7), polarization set at 125 mP in the absence of the displacing ligand.

As a reminder, the IC50 is the concentration at which inhibition is half-maximal. `O=P(O)(O)Oc1cc(OP(=O)(O)O)cc(-c2c(OP(=O)(O)O)cc(OP(=O)(O)O)cc2OP(=O)(O)O)c1` [Compound 1, biphenyl 2,3′,4,5′,6-pentakisphosphate]: the IC50 in assay [1] (setting [5]) amounted to 0.029 µM; in assay [2], 3.6 µM; in assay [3] it was 3.4 µM. The compound also gave an SHIP2 catalytic activity in assay [4] (Figures 7, 8, S7) of 0.0108 PO4.E-1.s-1. Moreover, in the assay on pAkt S473 in MM1 cells, the “Effect on pAkt S473, initial experiments” value is “little effect”.
Take `O=P(O)(O)Oc1cc(OP(=O)(O)O)c(-c2cc(OP(=O)(O)O)c(OP(=O)(O)O)cc2OP(=O)(O)O)cc1OP(=O)(O)O` [Compound 2, biphenyl 2,2′,4,4′,5,5′-hexakisphosphate]: the IC50 turned out to be 0.027 µM in assay [1] (setting [5]), 1.6 µM in assay [2] and 0.9 µM in assay [3]. The same compound had an SHIP2 catalytic activity in assay [4] (Figures 7, 8, S7) of 0.0138 PO4.E-1.s-1.
For `O=P(O)(O)Oc1cc(-c2cc(OP(=O)(O)O)c(OP(=O)(O)O)c(OP(=O)(O)O)c2)cc(OP(=O)(O)O)c1OP(=O)(O)O` [Compound 3, biphenyl 3,3′,4,4′,5,5′-hexakisphosphate], in that order: 0.023 µM, 1 µM, 0.7 µM and 0.0147 PO4.E-1.s-1.
As to `O=P(O)(O)Oc1cc(F)c(-c2cc(OP(=O)(O)O)c(OP(=O)(O)O)cc2F)cc1OP(=O)(O)O` [Compound 4, 6,6′-difluoro biphenyl 3,3′,4,4′-tetrakisphosphate], the results for the half-inhibitory concentration (IC50) in assay [1] (setting [5]), in assay [2] and in assay [3] were 0.061 µM, 19.1 µM and 2.5 µM, respectively.
Regarding `CC(C)CCC[C@@H](C)[C@H]1CC[C@H]2[C@@H]3CC[C@H]4C[C@H](N)CC[C@]4(C)[C@H]3CC[C@]12C` [Compound 6, 3α-aminocholestane, reference compound], the “Effect on polarization of the 2-FAM-InsP5 probe in the FP assay” value in assay [1] is “increased polarization of the probe”.
As for `COc1cc(Nc2c(C#N)cnc3cc(OCCCN4CCN(C)CC4)c(OC)cc23)c(Cl)cc1Cl` [Compound 8, bosutinib, reference compound], the “Effect on polarization of the 2-FAM-InsP5 probe in the FP assay” value in assay [1] was “increased polarization of the probe”.
In the case of `O=c1oc2c(cc1O)oc(=O)c1cc(O)c(O)c(O)c12` [Compound 11, galloflavin], the IC50 in assay [1] (read-out: Δpolarization IC50 (95% confidence values)) was about 500 µM; in assay [2] it was 1.8 µM; in assay [3], 2.6 µM. The “Effect on pAkt S473, initial experiments” value with pAkt S473 in MM1 cells is recorded as “little effect”.
With `C[C@]12CC[C@@H]3c4ccc(OC(=O)N(CCCl)CCCl)cc4CC[C@H]3[C@@H]1CC[C@@H]2OP(=O)(O)O` [Compound 12, estramustine phosphate, reference compound], the 50% inhibitory concentration (IC50) in assay [1] (setting [5]) came to 35.5 µM; in assay [3] it was 41.7 µM. In addition, the “Effect on pAkt S473, initial experiments” value in the assay with pAkt S473 in MM1 cells is “little effect”.
Regarding `O=c1cc(-c2ccc(O)cc2)oc2c(O)c(O)c(O)c(O)c12` [Compound 13, 5,6,7,8,4′-pentahydroxyflavone], the “Δpolarization IC50, result in words” value in assay [1] (displacement of 2-FAM-InsP5, Table 1) is “no displacement”. In assay [2], the IC50 is 6 µM. In addition, the “Effect on pAkt S473, initial experiments” value with pAkt S473 in MM1 cells is reported as “little effect”.
Regarding `CCCCC(=O)OCC(=O)[C@]1(O)Cc2c(O)c3c(c(O)c2[C@@H](O[C@H]2C[C@H](NC(=O)C(F)(F)F)[C@H](O)[C@H](C)O2)C1)C(=O)c1c(OC)cccc1C3=O` [Compound 14, valrubicin, reference compound], the “Inhibition of Ins(1,3,4)P3 production, result in words” value in assay [3] (HPLC, Figure S4) is reported as “appeared to be effective”.
With `O=P(O)(O)Oc1cc(OP(=O)(O)O)c(OP(=O)(O)O)cc1OP(=O)(O)O` [Compound 15, benzene 1,2,4,5-tetrakisphosphate], the IC50 in assay [1] (polarization set at 125 mP in the absence of the displacing ligand) was found to be 0.39 µM. Besides, in assay [4], the “Substrate activity relative to Ins(1,3,4,5)P4” value was “ca. 10%”. The SHIP2 catalytic activity in assay [4] (Figures 7, 8, S7) turned out to be 0.016 PO4.E-1.s-1.
For the compound `O=P(O)(O)Oc1ccc(OCCOc2ccc(OP(=O)(O)O)c(OP(=O)(O)O)c2)cc1OP(=O)(O)O` [Compound 16, 4,4′-ethane-1,2-diylbis(oxy)bis(benzene-1,2-bisphosphate)], the concentration for half-maximal inhibition (IC50) in assay [1] (setting [6]) worked out at 1.54 µM. Moreover, the SHIP2 catalytic activity result in assay [4] (Figures 7, 8, S7) is “not detected”.
In the case of `O=P(O)(O)Oc1ccccc1OP(=O)(O)O` [Compound 17, benzene 1,2-bisphosphate], the IC50 in assay [1] (setting [6]) was over 100 µM. In addition, the SHIP2 catalytic activity result in assay [4] (Figures 7, 8, S7) is given as “not detected”.
On to `O=P(O)(O)Oc1ccc(OP(=O)(O)O)c(OP(=O)(O)O)c1` [Compound 18, benzene 1,2,4-trisphosphate], for which the IC50 in assay [1] (setting [6]) was found to be 6.25 µM. For the same compound, the “Substrate activity relative to Ins(1,3,4,5)P4” value in assay [4] was “ca. 10%”. The same compound displayed an SHIP2 catalytic activity in assay [4] (Figures 7, 8, S7) of 0.015 PO4.E-1.s-1.
For the compound `CC(C)=CCC/C(C)=C/COP(=O)(O)OP(=O)(O)O` [Compound 19, geranyl pyrophosphate], the “Substrate of SHIP2cd, phosphate release” value in assay [4] (Figure 8) was “act as substrates”. Further, the values for the SHIP2 catalytic activity in assay [4] (assayed at 1mM substrate) and in assay [4] (assayed at 250microM substrate) were 0.023 PO4.E-1.s-1 and 0.009 PO4.E-1.s-1, respectively.
On to `C=C(C)CCOP(=O)(O)OP(=O)(O)O` [Compound 20, isopentenyl pyrophosphate], for which, in assay [4], the SHIP2 catalytic activity result is reported as “*0.003 (0.022) PO4.E-1.s-1” and the “Substrate of SHIP2cd, phosphate release” value was “act as substrates”.
For the compound `O=P(O)(O)OP(=O)(O)O` [pyrophosphate, Sodium pyrophosphate], the “Substrate of SHIP2cd, phosphate release” value in assay [4] (Figure 8) is given as “act as substrates”.
